pIC50: −log10 of the molar value.
Assays:
[1] = tested on: human cervical tumor cell line HeLa (ATCC CCL-2); assay: SAC-Formation - Paclitaxel-Induced Assay; format: cell-based; details: Homo sapiens, HeLa, 24 h, HeLa cells, paclitaxel 0.05 μM, test range 0.005 μM-20 μM, read-out: IC50 [mol/l] SAC-Formation - Paclitaxel-Induced Assay
Procedure, shortened: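 HeLa cells incubated overnight at 37° C, then given paclitaxel (0.05 μM final) plus test compound (0.005–20 μM, 0.5% DMSO) together for 24 h at 37° C. Fixed cells stained for phospho-histone H3 Ser10 (mitotic cells) and Hoechst 33342 (cell count); imaging-derived mitotic index fitted by four-parameter Hill equation.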

[2] = tested on: human cervical tumor cell line HeLa (ATCC CCL-2); assay: SAC-Formation - Nocodazole-Induced Assay; format: cell-based; details: Homo sapiens, HeLa, 24 h, HeLa cells, nocodazole 0.1 μg/ml together with test compound, decrease of mitotic cells (phospho-histone H3 Ser10)
Procedure, shortened: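 HeLa cells, plated overnight, were treated 24 h at 37 °C with nocodazole (0.1 μg/ml final) plus test compound (0.005–20 μM, 0.5% DMSO) added at the same time. After fixation, anti-phospho-histone H3 Ser10 and Hoechst staining gave the mitotic cell fraction by imaging. Values came from four-parameter Hill fits.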

pIC50 [1]	pIC50 [2]	Structure (SMILES)
5.39	5.33	Cc1nsc(Nc2cnc3ccccc3n2)c1C(=O)Nc1ccc(Oc2ccc(SC(F)(F)F)cc2)nc1 [Example 233, 3-methyl-5-(quinoxalin-2-ylamino)-N-(6-{4-[(trifluoromethyl)sulfanyl]phenoxy}pyridin-3-yl)-1,2-thiazole-4-carboxamide]
5.00	6.00	Cc1nsc(Nc2cnc3ccccc3n2)c1C(=O)Nc1ccc(NC2CCN(C(=O)OC(C)(C)C)CC2)nc1 [Example 234, tert-butyl 4-{[5-({[3-methyl-5-(quinoxalin-2-ylamino)-1,2-thiazol-4-yl]carbonyl}amino)pyridin-2-yl]amino}piperidine-1-carboxylate]
5.82	6.28	COc1ccc(NC(=O)c2c(C)nsc2Nc2cnc3ccccc3n2)c(CC#N)n1 [Example 235, N-[2-(cyanomethyl)-6-methoxypyridin-3-yl]-3-methyl-5-(quinoxalin-2-ylamino)-1,2-thiazole-4-carboxamide]

Second part, the compound before the results:

Structure (SMILES)	pIC50 [1]	pIC50 [2]
Cc1nsc(Nc2cncc(C(F)(F)F)n2)c1C(=O)Nc1ccc(OC2CCN(CC(F)F)CC2)c(F)c1 [Example 224, N-(4-{[1-(2,2-difluoroethyl)piperidin-4-yl]oxy}-3-fluorophenyl)-3-methyl-5-{[6-(trifluoromethyl)pyrazin-2-yl]amino}-1,2-thiazole-4-carboxamide]	6.74	6.96
Cc1nsc(Nc2cncc(C(F)(F)F)n2)c1C(=O)Nc1ccc(C(=O)NC2CCN(CC(F)F)CC2)cc1 [Example 225, N-N-(4-{[1-(2,2-difluoroethyl)piperidin-4-yl]carbamoyl}phenyl)-3-methyl-5-{[6-(trifluoromethyl)pyrazin-2-yl]amino}-1,2-thiazole-4-carboxamide]	6.24	6.51
Cc1nsc(Nc2cncc(C(F)(F)F)n2)c1C(=O)Nc1ccc(OCC2CCN(C(=O)OC(C)(C)C)CC2)nc1 [Example 226, tert-butyl 4-{[(5-{[(3-methyl-5-{[6-(trifluoromethyl)pyrazin-2-yl]amino}-1,2-thiazol-4-yl)carbonyl]amino}pyridin-2-yl)oxy]methyl}piperidine-1-carboxylate]	6.68	6.92
Cc1nsc(Nc2cnc(C(F)(F)F)cn2)c1C(=O)Nc1ccc(OCC2CCN(C(=O)OC(C)(C)C)CC2)nc1 [Example 227, tert-butyl 4-{[(5-{[(3-methyl-5-{[5-(trifluoromethyl)pyrazin-2-yl]amino}-1,2-thiazol-4-yl)carbonyl]amino}pyridin-2-yl)oxy]methyl}piperidine-1-carboxylate]	6.52	7.24
Cc1nsc(Nc2cnc(C(F)(F)F)cn2)c1C(=O)Nc1ccc(OCC2CCCN(C(=O)OC(C)(C)C)C2)nc1 (stereo not shown) [Example 228, tert-butyl 3-{[(5-{[(3-methyl-5-{[5-(trifluoromethyl)pyrazin-2-yl]amino}-1,2-thiazol-4-yl)carbonyl]amino}pyridin-2-yl)oxy]methyl}piperidine-1-carboxylate]	7.32	6.74
Cc1nsc(Nc2cnc(C(F)(F)F)cn2)c1C(=O)Nc1ccc(F)c(OC2CCN(C(=O)OC(C)(C)C)CC2)c1 [Example 229, tert-butyl 4-(2-fluoro-5-{[(3-methyl-5-{[5-(trifluoromethyl)pyrazin-2-yl]amino}-1,2-thiazol-4-yl)carbonyl]amino}phenoxy)piperidine-1-carboxylate]	6.44	6.85
Cc1nsc(Nc2cc(C#N)ccn2)c1C(=O)Nc1ccc(Oc2cccc(C(F)(F)F)c2)nc1 [Example 230, 5-[(4-cyanopyridin-2-yl)amino]-3-methyl-N-{6-[3-(trifluoromethyl)phenoxy]pyridin-3-yl}-1,2-thiazole-4-carboxamide]	7.09	7.05
Cc1nsc(Nc2cnc3ccccc3n2)c1C(=O)Nc1ccc(Oc2cccnc2)nc1 [Example 231, 3-methyl-N-[6-(pyridin-3-yloxy)pyridin-3-yl]-5-(quinoxalin-2-ylamino)-1,2-thiazole-4-carboxamide]	6.59	7.24

From patent US20170334899A1, “AMINO-SUBSTITUTED ISOTHIAZOLES” (Bayer Pharma Aktiengesellschaft, priority 2014, published 2017)
